Results taken from patent US4532255A, “Amidine compounds and anticomplement agent comprising same” (Torii & Co., Ltd., priority 1980, dated 1985).
pIC50: −log10 of the molar value.

Key:
Plasmin = Plasmin (Homo sapiens, UniProt P00747); test: Anti-plasmin activity (hydrolysis of TAME); assay type: biochemical; details: for pIC50: molar concentration inhibiting 50% of TAME hydrolysis, read-out: Plasmin ID50
Procedure: (§1) The anti-trypsin, anti-plasmin, anti-kallikrein and anti-thrombin activities were determined according to the method of Muramatsu et al. [M. Muramatsu, T. Onishi, S. Makino, Y. Hayashi and S. Fujii, J. of Biochem., 58, 214 (1965)]. […] The compound No. corresponds to the compound number shown in Examples.

Trypsin = target: T1, Trypsin (Bos taurus, UniProt P00760); test: Anti-trypsin activity (hydrolysis of TAME); assay type: biochemical; details: for pIC50: molar concentration inhibiting 50% of TAME hydrolysis, read-out: Trypsin ID50; for inhibition at 10 µM: at 1×10^-5 M, read-out: Trypsin percentage inhibition
T1 sequence (P00760 24-246): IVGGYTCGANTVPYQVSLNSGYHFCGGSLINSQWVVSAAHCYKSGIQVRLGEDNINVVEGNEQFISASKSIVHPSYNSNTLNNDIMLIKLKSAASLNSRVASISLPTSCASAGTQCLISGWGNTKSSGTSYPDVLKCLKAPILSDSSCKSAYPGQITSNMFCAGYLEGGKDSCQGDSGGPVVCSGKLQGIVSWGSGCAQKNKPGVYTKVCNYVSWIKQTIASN
Procedure: as §1

C1r = target: T2, C1r (Homo sapiens, UniProt P00736); test: Anti-C1 esterase (C1r) activity (hydrolysis of AAME); assay type: biochemical; details: AAME hydrolysis; read-out: Anti-C1 activity, C1r ID50
T2 sequence (P00736 464-705 limits assumed): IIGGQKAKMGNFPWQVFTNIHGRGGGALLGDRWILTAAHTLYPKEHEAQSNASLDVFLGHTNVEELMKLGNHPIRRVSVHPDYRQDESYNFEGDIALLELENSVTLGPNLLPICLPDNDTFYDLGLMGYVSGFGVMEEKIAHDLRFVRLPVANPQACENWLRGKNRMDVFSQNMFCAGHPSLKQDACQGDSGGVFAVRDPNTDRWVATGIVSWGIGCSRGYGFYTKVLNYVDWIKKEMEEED
T2 sequence (P00736 18-463 partner limits assumed): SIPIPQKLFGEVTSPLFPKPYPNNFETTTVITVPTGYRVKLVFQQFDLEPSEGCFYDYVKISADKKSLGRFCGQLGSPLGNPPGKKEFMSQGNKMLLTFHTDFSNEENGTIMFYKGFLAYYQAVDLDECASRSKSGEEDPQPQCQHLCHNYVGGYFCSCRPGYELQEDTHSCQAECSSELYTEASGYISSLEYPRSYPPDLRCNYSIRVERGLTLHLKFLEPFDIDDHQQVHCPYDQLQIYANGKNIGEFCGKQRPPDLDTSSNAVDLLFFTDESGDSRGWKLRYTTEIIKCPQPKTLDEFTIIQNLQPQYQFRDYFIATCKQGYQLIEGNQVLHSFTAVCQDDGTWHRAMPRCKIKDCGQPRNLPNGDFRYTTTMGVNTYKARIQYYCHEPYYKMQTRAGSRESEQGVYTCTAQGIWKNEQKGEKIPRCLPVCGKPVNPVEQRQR
Procedure: The anti-Cl esterase ([…]) activity was determined according to the method of Okamura et al. [K. Okamura, M. Muramatsu and S. Fujii, Biochem. Biophys.

[1] = tested on: complement mediated hemolysis; test: Inhibition of complement mediated hemolysis; assay type: cell-based
Procedure: The principle of this method is based on the fact that hemolysis is caused by the activation of complement, when the latter is added to a complex (immune complex) of erythrocytes and the antibody thereof. The degree of hemolysis varies in proportion to the amount of complement added. Therefore, when a known amount of complement admixed with a C1 esterase inhibitor is used, the hemolysis must be suppressed in proportion to the inhibitory activity.

C1s = target: T3, C1s (Homo sapiens, UniProt P09871); test: biochemical; details: ATEE hydrolysis; read-out: Anti-C1 activity, C1s ID50
T3 sequence (P09871 438-688 limits assumed): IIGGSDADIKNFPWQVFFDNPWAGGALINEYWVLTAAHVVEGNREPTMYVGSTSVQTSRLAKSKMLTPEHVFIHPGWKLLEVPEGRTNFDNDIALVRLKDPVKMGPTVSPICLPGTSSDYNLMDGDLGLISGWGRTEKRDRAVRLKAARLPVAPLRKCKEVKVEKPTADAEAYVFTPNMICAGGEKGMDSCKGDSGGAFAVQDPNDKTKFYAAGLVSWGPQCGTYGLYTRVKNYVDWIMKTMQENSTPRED
T3 sequence (P09871 16-437 partner limits assumed): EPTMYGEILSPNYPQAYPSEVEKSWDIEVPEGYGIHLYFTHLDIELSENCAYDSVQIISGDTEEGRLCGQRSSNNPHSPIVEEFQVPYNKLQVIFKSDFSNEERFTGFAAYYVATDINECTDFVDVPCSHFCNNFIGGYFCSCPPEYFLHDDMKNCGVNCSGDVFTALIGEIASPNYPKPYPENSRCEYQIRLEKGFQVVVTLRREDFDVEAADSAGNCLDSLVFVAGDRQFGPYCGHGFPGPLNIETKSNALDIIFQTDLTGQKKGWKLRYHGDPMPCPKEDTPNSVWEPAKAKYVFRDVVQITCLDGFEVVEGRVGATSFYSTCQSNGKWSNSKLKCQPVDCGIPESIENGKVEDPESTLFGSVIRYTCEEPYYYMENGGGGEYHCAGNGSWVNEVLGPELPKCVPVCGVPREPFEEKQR
Procedure: The anti-Cl esterase (Clr, Cls) activity was determined according to the method of Okamura et al. [K. Okamura, M. Muramatsu and S. Fujii, Biochem. Biophys. […] The figures in Table 2 have the following meanings:
Cls: Molar concentration of the test compound which inhibits 50% of the ability of Cls to hydrolyse ATEE (acetyltyrosin ethyl ester).

Kallikrein = test: Anti-kallikrein activity (hydrolysis of TAME); assay type: biochemical; details: molar concentration inhibiting 50% of TAME hydrolysis; read-out: Kallikrein ID50
Procedure: (§2) The anti-trypsin, anti-plasmin, anti-kallikrein and anti-thrombin activities were determined according to the method of Muramatsu et al. [M. Muramatsu, T. Onishi, S. Makino, Y. Hayashi and S. Fujii, J. of Biochem., 58, 214 (1965)]. The data summarized in Table 1 are expressed in terms of molar concentration (ID50) of the test compound which inhibits 50% of the activity of each enzyme to hydrolyze TAME (tosylalginine methyl ester). The compound No. corresponds to the compound number shown in Examples.

Thrombin = Thrombin (Homo sapiens, UniProt P00734); test: biochemical; details: for pIC50: molar concentration inhibiting 50% of TAME hydrolysis, read-out: Thrombin ID50; for inhibition at 10 µM: at 1×10^-5 M, read-out: Thrombin percentage inhibition
Procedure: as §2

Plasmin, sequence (P00747 581-810 limits assumed, species assumed): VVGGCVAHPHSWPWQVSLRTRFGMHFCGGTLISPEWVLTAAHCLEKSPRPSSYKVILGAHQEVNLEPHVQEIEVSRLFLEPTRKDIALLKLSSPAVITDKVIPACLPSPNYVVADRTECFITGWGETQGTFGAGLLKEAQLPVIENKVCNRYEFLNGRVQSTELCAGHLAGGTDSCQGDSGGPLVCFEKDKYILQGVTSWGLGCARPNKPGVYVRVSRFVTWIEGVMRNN
Plasmin, sequence (P00747 97-580 partner limits assumed, species assumed): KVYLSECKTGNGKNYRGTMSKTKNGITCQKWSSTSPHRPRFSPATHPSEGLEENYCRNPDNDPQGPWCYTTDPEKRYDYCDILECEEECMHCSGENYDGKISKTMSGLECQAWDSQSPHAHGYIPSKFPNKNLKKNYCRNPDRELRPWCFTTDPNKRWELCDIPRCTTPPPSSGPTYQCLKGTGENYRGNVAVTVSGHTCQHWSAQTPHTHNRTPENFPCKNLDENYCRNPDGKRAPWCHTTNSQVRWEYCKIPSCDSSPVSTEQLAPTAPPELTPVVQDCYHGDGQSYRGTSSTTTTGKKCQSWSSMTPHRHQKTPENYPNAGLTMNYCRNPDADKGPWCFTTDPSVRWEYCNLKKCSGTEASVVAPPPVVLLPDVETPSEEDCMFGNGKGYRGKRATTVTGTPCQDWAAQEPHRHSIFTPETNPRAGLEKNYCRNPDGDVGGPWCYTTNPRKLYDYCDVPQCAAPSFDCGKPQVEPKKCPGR

| Compound | pIC50 (Plasmin) | pIC50 (Trypsin) | pIC50 (C1r) | Inhibition of complement mediated hemolysis (%) ([1]; 1 × 10^-4) | Inhibition of complement mediated hemolysis (%) ([1]; 1 × 10^-5) | Inhibition of complement mediated hemolysis (%) ([1]; 1 × 10^-6) | Inhibition of complement mediated hemolysis (%) ([1]; 1 × 10^-7) | pIC50 (C1s) | pIC50 (Kallikrein) | pIC50 (Thrombin) | inhibition at 10 µM (Trypsin) [%] | inhibition at 10 µM (Plasmin; at 1×10^-5 M, read-out: Plasmin percentage inhibition) [%] | inhibition at 10 µM (Thrombin) [%] |
| --- | --- | --- | --- | --- | --- | --- | --- | --- | --- | --- | --- | --- | --- |
| N=C(N)c1ccc2cc(OC(=O)c3ccccc3)ccc2c1 [Compound 1, 6-amidino-2-naphthyl benzoate] | 5.70 | 5.52 | 6.40 | 100 | 100 | 91 | 27 | 7.00 | 4.52 | 5.30 | – | – | – |
| Cc1ccccc1C(=O)Oc1ccc2cc(C(=N)N)ccc2c1 [Compound 2, 6-amidino-2-naphthyl 2-methylbenzoate] | < 5.00 | – | – | – | – | – | – | – | < 5.00 | < 5.00 | 38 | – | – |
| Cc1ccc(C(=O)Oc2ccc3cc(C(=N)N)ccc3c2)cc1 [Compound 4] | 6.30 | 6.00 | 6.40 | – | 85 | 37 | 21 | 7.15 | 5.10 | 4.70 | – | – | – |
| CC(C)(C)c1ccc(C(=O)Oc2ccc3cc(C(=N)N)ccc3c2)cc1 [Compound 5] | 5.70 | 6.52 | – | – | – | – | – | – | 5.05 | 5.52 | – | – | – |
| CC(=O)Oc1ccccc1C(=O)Oc1ccc2cc(C(=N)N)ccc2c1 [Compound 12] | – | – | 5.52 | 87 | 55 | 27 | 3 | 5.52 | < 5.00 | < 5.00 | 24 | 40 | – |
| COC(=O)c1ccc(C(=O)Oc2ccc3cc(C(=N)N)ccc3c2)cc1 [Compound 14] | 6.30 | 6.52 | 5.15 | 61 | 15 | 1 | 3 | 5.22 | – | 5.52 | – | – | – |
| N=C(N)c1ccc2cc(OC(=O)c3ccc([N+](=O)[O-])cc3)ccc2c1 [Compound 18, 6-amidino-2-naphthyl 4-nitrobenzoate] | 5.52 | 5.00 | 5.40 | 92 | 97 | 56 | 20 | 5.40 | < 5.00 | 5.70 | – | – | – |
| N=C(N)c1ccc2cc(OC(=O)c3ccc(CNC(=O)OCc4ccccc4)cc3)ccc2c1 [Compound 21, 6-amidino-2-naphthyl 4-benzyloxycarbonylaminomethylbenzoate] | – | 6.22 | 6.15 | 0 | 66 | 14 | 0 | 6.30 | 5.00 | < 5.00 | – | – | – |
| CN(C)c1cccc(C(=O)Oc2ccc3cc(C(=N)N)ccc3c2)c1 [Compound 23, 6-amidino-2-naphthyl 3-dimethylaminobenzoate] | 4.70 | 4.70 | – | – | – | – | – | – | 4.00 | 5.00 | – | – | – |
| CN(C)c1ccc(C(=O)Oc2ccc3cc(C(=N)N)ccc3c2)cc1 [Compound 24, 6-amidino-2-naphthyl 4-dimethylaminobenzoate] | 4.70 | 6.52 | – | – | – | – | – | – | 4.30 | 4.22 | – | – | – |
| CC(=O)Nc1ccc(C(=O)Oc2ccc3cc(C(=N)N)ccc3c2)cc1 [Compound 25, 6-amidino-2-naphthyl 4-acetylaminobenzoate] | – | – | 6.15 | 64 | 26 | 1 | 0 | 6.40 | 4.00 | 4.22 | – | – | – |
| N=C(N)c1ccc2cc(OC(=O)Cc3ccc(Cl)cc3)ccc2c1 [Compound 44] | – | – | < 5.00 | 89 | 21 | 0 | 18 | < 5.00 | – | – | – | – | – |
| Cc1ccc(CCC(=O)Oc2ccc3cc(C(=N)N)ccc3c2)cc1 [Compound 48] | 5.70 | 5.30 | – | – | – | – | – | – | < 5.00 | – | – | – | 43 |
| CC(=O)Oc1ccc(CCC(=O)Oc2ccc3cc(C(=N)N)ccc3c2)cc1 [Compound 50] | – | – | – | 49 | 16 | 1 | 11 | – | – | – | – | – | – |
| N=C(N)c1ccc2cc(OC(=O)CCCc3ccccc3)ccc2c1 [Compound 54, 6-amidino-2-naphthyl 4-phenylbutyrate] | – | – | < 5.00 | 12 | 10 | 10 | 4 | < 5.00 | – | – | – | – | – |
| Cc1ccc(C=CC(=O)Oc2ccc3cc(C(=N)N)ccc3c2)cc1 [Compound 58] | 6.30 | 5.70 | – | – | – | – | – | – | < 5.00 | – | – | – | 22 |
| COc1ccc(C=CC(=O)Oc2ccc3cc(C(=N)N)ccc3c2)cc1OC [Compound 59] | 6.22 | 7.00 | – | – | – | – | – | – | 6.00 | 5.22 | – | – | – |
| N=C(N)c1ccc2cc(OC(=O)C=Cc3ccc([N+](=O)[O-])cc3)ccc2c1 [Compound 62, 6-amidino-2-naphthyl 4-nitrocinnamate] | 5.70 | 5.52 | – | – | – | – | – | – | < 5.00 | – | – | – | 24 |
| N=C(N)c1ccc2cc(OC(=O)COc3ccc(Cl)cc3Cl)ccc2c1 [Compound 70] | – | – | < 5.00 | 26 | 1 | 0 | 2 | < 5.00 | – | – | – | – | – |
